The source of these data is patent US12103916B2, “Antifungal compounds” (University of Kentucky Research Foundation, priority 2016, dated 2024).

Read-outs that look alike come from different tables or passages of the source. Marks after values point to notes of the source that are not given here.

Assay [1] relates to C. albicans ATCC MYA-2876(S). Particulars: Table 1; strain C; control azoles; previously reported (refs 5, 16); cited from earlier work.
The test system of assay [2] is C. albicans ATCC MYA-2310(S). Put plainly: MIC determination, strain E. Particulars: Candida albicans. The class given is cell-based, Candida albicans. As to the method:
The antifungal activity of our new azole compounds 1-9 and 24-41 was first evaluated against a panel of seven Candida albicans strains (A-G), three non-albicans Candida strains […], and three Aspergillus strains (K-M) in a concentration range of 0.03-31.2 μg/mL (Table 1). […] For all of our azole derivatives we report their MIC-0 values against C. albicans ATCC 10231 (strain A) and all Aspergillus strains (K-M), which correspond to complete growth inhibition of these fungi. […] The commercially available antifungals AmB, FLC, ITC, POS, and VOR were used as reference drugs for comparison. The MIC values presented for these five control drugs were either tested herein or correspond to our previously published data^5, 16 as indicated in Table 1.
Antifungal activity in the absence or presence of serum. The antifungal activity of the newly prepared alkylated piperazine/morpholine-azole hybrids 16-28, of intermediate 14 that we used to verify that only final compounds exert antifungal activity, as well as that of alkylated piperazine/morpholine derivatives 1-10 were first evaluated against a panel of seven C. albicans (ATCC 10231 (A), ATCC 64124(R) (B), ATCC MYA-2876(S) (C), ATCC 90819(R) (D), ATCC MYA-2310(S) (E), ATCC MYA-1237(R) (F), and ATCC MYA-1003(R) (G)), three non-albicans Candida (C. glabrata ATCC 2001 (H), C. krusei ATCC 6258 (I), and C. parapsilosis ATCC 22019 (J)), and three Aspergillus (A. flavus ATCC MYA-3631 (K), A. nidulans ATCC 38163 (L), and A. terreus ATCC MYA-3633 (M)) strains using a concentration range of 0.03-31.3 μg/mL (Table 2).
Commercially available antifungal agents such as AmB, CAS, FLC, and VOR were used as positive controls for comparison. […] It is important to note that all comparisons to follow will be done by using the MIC values reported in μg/mL as the data were collected that way. However, we also present in parentheses in Table 2 the corresponding values in micromolar.
We used the commercially available antifungal agents such as AmB, caspofungin (CAS), FLC, and VOR as positive controls for comparison. For derivatives 5-16 as well as the reference drugs AmB and CAS, we reported MIC-0 values, which correspond to no visible growth. […] In this manuscript, we performed all activity comparisons by using the MIC values reported in μg/mL (Note: the corresponding MIC values are also provided in μM into parentheses in Tables 1, 2, S1, and S2).

Assay [3] concerns Aspergillus terreus ATCC MYA-3633. The assay can be described thus: MIC determination, strain M. The format is cell-based. To be noted: Aspergillus terreus, Table 2, all compounds and controls. From the text: For all of our azole derivatives we report their MIC-0 values against C. albicans ATCC 10231 (strain A) and all Aspergillus strains (K-M), which correspond to complete growth inhibition of these fungi. […] The MIC values presented for these five control drugs were either tested herein or correspond to our previously published data^5, 16 as indicated in Table 1.
Antifungal activity in the absence or presence of serum.
It is important to note that all comparisons to follow will be done by using the MIC values reported in μg/mL as the data were collected that way. However, we also present in parentheses in Table 2 the corresponding values in micromolar.
In this manuscript, we performed all activity comparisons by using the MIC values reported in μg/mL (Note: the corresponding MIC values are also provided in μM into parentheses in Tables 1, 2, S1, and S2).

Assay [4] has as its system C. glabrata ATCC 2001 (strain H). The assay can be described thus: Time-kill assay, strain H. The class given is cell-based, Candida glabrata. Particulars: Ex.2 series, compound at 4×MIC, VOR control. The protocol: FIG. 9A-9D include Representative time-kill curves for compound 20 against FIG. 9A. C. albicans ATCC 10231 (strain A) and FIG. 9B. C. parapsilosis ATCC 22019 (strain J), as well as for compound 22 against FIG. 9C. C. glabrata ATCC 2001 (strain H), and FIG. 9D. strain J. Fungal strains were treated with no drug (black circles), 1×MIC (white circles), 4×MIC (inverted black triangles), or 8×MIC (white triangles) of compounds 20 or 22, or with 1×MIC (black squares) or 4×MIC (white squares) of VOR. The detection limit of this assay was 100 CFU/mL (represented by the red line in panels A and C).
Time-kill assays. To determine if the antifungal activity of the alkylated piperazine-azole hybrids is fungistatic or fungicidal, we performed time-kill assays over 24-hour periods by using compounds 20 and 22, each against two fungal strains (strains A and J for 20; H and J for 22) (FIG. 9).

Assay [5] has as its system C. albicans ATCC MYA-1237(R). To be noted: Table 1; strain F; control azoles; previously reported (refs 5, 16); cited from earlier work.
The test system of assay [6] is C. albicans ATCC 64124 (strain B) biofilms. The assay can be described thus: Antibiofilm activity by XTT reduction assay. The format is cell-based, Candida albicans. Particulars: Table 4, Ex.2. The protocol:
Antibiofilm activity of synthetic compounds. Biofilms are complex functional communities of one or more species of microorganisms that are encased in extracellular polymeric substances and attached to both a solid surface and to each other. Being complex matrices, antifungal agents have difficulty reaching the pathogens embedded in these difficult-to-treat networks. The antibiofilm activity of compounds 7, 9, 20, 22, 25, and 26, as well as that of VOR were evaluated against biofilms of C. albicans ATCC 64124 (strain B) by XTT reduction assay (Table 4).
Background: Tetrazolium dyes change colour on reduction, which living cells bring about.

Regarding `C[C@@H](c1ncncc1F)[C@](O)(Cn1cncn1)c1ccc(F)cc1F` [VOR, voriconazole], the results for the “MIC (MIC-2)” value in assay [1] and in assay [5] were 1.95^c μg/mL and 7.8^c μg/mL, respectively. Besides, the MIC was determined as 0.975 µg/mL in assay [2] (read-out: MIC (MIC-2)); 2.8 µM in assay [2] (read-out: MIC (MIC-2), in parentheses); 0.12 µg/mL in assay [3] (read-out: MIC (MIC-0)); 0.34 µM in assay [3] (read-out: MIC (MIC-0), in parentheses). Also, the “effect in time-kill assay” value in assay [4] is reported as “fungistatic”. In assay [6] (reduces metabolic activity of biofilms by 50%), this compound showed an SMIC50 of 62.5 µg/mL. For the same compound, the SMIC80 in assay [6] (reduces metabolic activity of biofilms by 80%) was determined as 62.5 µg/mL.

For orientation: MIC means the smallest concentration in the dilution series that meets the test's criterion for growth inhibition.
